Data from paper PMC3789979, “Recruitment of a Cytoplasmic Chaperone Relay by the A2A Adenosine Receptor” (The Journal of Biological Chemistry, 2013).
Where two headings read alike, the source gives them in different places.

Legend:
[1] = system: A2A receptor-chaperone complexes, HEK293 cells stably expressing FS2-N-A2AR; experiment: Co-affinity precipitation of receptor-chaperone complexes after inhibitor treatment; assay type: cell-based, human; conditions: 17-DMAG 2 μM; for amount of HSP90 co-affinity-purified with the A2A receptor / association of HSP70 with the A2A receptor / higher glycosylated, mature form of the co-purified A2A receptor (ratio mature/core): 24 h, kifunensine 2 μM, bortezomib 10 nM
Experimental: (§1) Cells (1–5 × 10^7 cells) were harvested, and membranes were prepared as described previously ([14]). Membranes were solubilized as described above, followed by incubation with streptavidin-conjugated beads (G2S-N-A2A) or Strep-Tactin-Sepharose beads (FSt2-N-A2A) for 2 h at 4 °C. […] Thereafter, preequilibrated protein G-Sepharose beads were added and incubated for an additional 3 h at 4 °C. The beads were washed twice with 0.5 ml of solubilization buffer. […] A2A receptor and HSP90 were detected by immunoblotting using either anti-A2AR or anti-FLAG and anti-HSP90α (Abcam, Cambridge, UK) antibodies, respectively. As a control, membranes were harvested from untransfected HEK293 cells and processed in parallel. Immunoblots were quantified as described above. Where required, nitrocellulose membranes of primary and secondary antibody labeling were stripped by incubation with KSCN buffer (3 M KSCN, 150 mM KCl, 10 mM NaH2PO4, 100 mg/liter polyvinylpyrrolidone K30, 1-ethenylpyrrolidin-2-one) for 20 min at 23 °C to afford detection of additional proteins with the pertinent antibodies (i.e. anti-HSP90β, anti-HSC70, anti-HOP, anti-P23, and anti-CHIP, all from Abcam).
FIGURE 7. […] B, immunoblots done as in A (top) were analyzed with ImageJ. […] C, the A2A receptor was immunoprecipitated from cells that had been incubated in the presence and absence of 17-DMAG (2 μM) as in A. The levels of HSC70 (C, top), HOP (C, second from top), P23 (C, third from top), and CHIP (C, bottom) were determined by immunoblotting and quantified with ImageJ.

[2] = system: endogenously expressed A2A receptor in PC12 cells; experiment: [3H]ZM241385 binding to membranes of inhibitor-pretreated PC12 cells; assay type: cell-based; conditions: for levels of functional (binding-competent) receptors: 24 h pretreatment, 2 μM, 10 nM [3H]ZM241385, PC12 membranes; for increase in steady state levels of active A2A receptors: PC12 cells, kifunensine 2 μM, bortezomib 10 nM
Experimental: (§2) After 60 min at 23 °C, the reaction was terminated by rapid filtration over glass fiber filters (Whatman-GE Healthcare). […] Total receptor numbers were also determined by measuring the radioactivity released after dissolving the samples in 1 M NaOH ([22]). […] The number of viable cells was determined manually using a microscope counting chamber.
(§3) FIGURE 9. Effect of HSP90 and/or proteasome inhibitors on the levels of endogenously expressed A2A receptor in PC12 cells. […] B, prior to membrane preparations of PC12 cells expressing the A2A receptor, cells were incubated in the absence and presence of 17-DMAG (2 μM), kifunensine (2 μM), and bortezomib (10 nM). […] After two washes, surface-bound radioligand was released by an acid strip and recovered in the supernatant. Assays were performed in quadruplicates. […] After membrane extraction and immunoprecipitation, aliquots (corresponding to 3 × 10^5 cells) of the immunoprecipitate were blotted for the A2A receptor (top), HSP90α, HSP70–1A, HOP, P23, and CHIP, as indicated. M, mature; C, core glycosylated.

[3] = system: A2A receptor-chaperone complexes in PC12 cells; experiment: Immunoprecipitation of endogenous A2A receptor from inhibitor-pretreated PC12 cells and immunoblotting; assay type: cell-based; conditions: for fully glycosylated, slowly migrating band of the A2A receptor: kifunensine 2 μM, bortezomib 10 nM
Experimental: as §1, §3

[4] = system: cell surface levels of the A2A receptor, HEK293 cells stably expressing FS2-N-A2AR; experiment: Cell surface levels of the A2A receptor after 24 h HSP90 inhibitor treatment (acid-strip-sensitive [3H]ZM241385 binding); assay type: cell-based, human; conditions: for EC50 relative to affinity for binding to HSP90: EC50 higher than HSP90 affinity of refs 27, 28
Experimental: as §2
FIGURE 5. […] Error bars, S.D. Data are from four independent experiments done in triplicate. Statistical significance was calculated by analysis of variance followed by Dunnett's multiple-comparison post hoc test (*, p < 0.05; ***, p < 0.001). B, HEK293 cells stably expressing the tagged version G2S-N-A2AR were incubated with increasing concentrations of radicicol or 17-DMAG.

[5] = system: A2A receptor glycoforms, HEK293 cells stably expressing G2S-N-A2AR; experiment: Immunoblot of A2A receptor glycoforms after HSP90 inhibitor treatment; assay type: cell-based, human; conditions: saturating concentrations, 24 h
Experimental: as §1
FIGURE 5. […] Statistical significance was calculated by analysis of variance followed by Dunnett's multiple-comparison post hoc test (*, p < 0.05; ***, p < 0.001). […]

[6] = design: method as in PMID 20177028; conditions: administered to people; cited from earlier work

SMILES	amount of HSP90 co-affinity-purified with the A2A receptor [1]	association of HSP70 with the A2A receptor [1]	higher glycosylated, mature form of the co-purified A2A receptor (ratio mature/core) [1]	levels of functional (binding-competent) receptors [2]	increase in steady state levels of active A2A receptors [2]	fully glycosylated, slowly migrating band of the A2A receptor ([3]; 24 h, 17-DMAG 2 μM)	EC50 relative to affinity for binding to HSP90 [4]	EC50 ([4]; Homo sapiens, HEK293, read-out: EC50 for increase in cell surface levels of the A2A receptor) [nM]	core glycosylated band of the A2A receptor (immunoblot) [5]	EC50 ([4]; 24 h incubation, acid-strip-sensitive [3H]ZM241385 binding, read-out: EC50 for increase in cell surface levels of the A2A receptor) [nM]	associated CHIP [1]	associated P23 [1]	co-precipitated HOP [1]	co-precipitated HSC70 [1]	HSP90α, HSP70-1A and HSC70 recovered in the immunoprecipitate ([3]; 17-DMAG 2 μM, 24 h)	HOP recovered with the A2A receptor ([3]; pretreatment with DMAG)	P23 and CHIP recovered with the A2A receptor ([3]; pretreatment with DMAG)	half-life [6] [h]
O=C1N[C@@H]2[C@@H](O)[C@@H](O)[C@H](O)[C@@H](CO)N2C1=O [kifunensine]	accumulation	accumulation	no significant increase	increased	about 1.5 fold	increased the abundance	–	–	–	–	–	–	–	–	–	–	–	–
C[C@@H]1C[C@H]2O[C@@H]2/C=C\C=C\C(=O)Cc2c(Cl)c(O)cc(O)c2C(=O)O1 [radicicol]	–	–	–	–	–	–	about 3 fold	~400	increased accumulation	–	–	–	–	–	–	–	–	–
CO[C@H]1/C=C\C=C(/C)C(=O)NC2=CC(=O)C(NCCN(C)C)=C(C[C@@H](C)C[C@H](OC)[C@H](O)[C@@H](C)/C=C(\C)[C@@H]1OC(N)=O)C2=O [17-DMAG, 17-dimethylaminoethylamino-17-demethoxygeldanamycin]	increased	augmented	significant increase	increased	–	increased the abundance	about 3 fold	–	increased accumulation	~1000	decline	decrease in associated P23 (HSP90 co-chaperone), but this did not reach statistical significance	substantial increase	substantial increase	abundant amounts	more	less	24
CC(C)C[C@H](NC(=O)[C@H](Cc1ccccc1)NC(=O)c1cnccn1)B(O)O [bortezomib]	did not cause the accumulation	did not cause the accumulation	significant increase	–	about 1.5 fold	increased the abundance	–	–	–	–	–	–	–	–	–	–	–	–
